This is an account of results in patent US20170334899A1, “AMINO-SUBSTITUTED ISOTHIAZOLES” (Bayer Pharma Aktiengesellschaft, priority 2014, published 2017).

Test [1] concerns human cervical tumor cell line HeLa (ATCC CCL-2). Put plainly: SAC-Formation - Paclitaxel-Induced Assay. The settings on record: Homo sapiens, HeLa, 24 h, HeLa cells, paclitaxel 0.05 μM, test range 0.005 μM-20 μM, read-out: IC50 [mol/l] SAC-Formation - Paclitaxel-Induced Assay. In kind it is cell-based. Summed up: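 HeLa cells incubated overnight at 37° C, then given paclitaxel (0.05 μM final) plus test compound (0.005–20 μM, 0.5% DMSO) together for 24 h at 37° C. Fixed cells stained for phospho-histone H3 Ser10 (mitotic cells) and Hoechst 33342 (cell count); imaging-derived mitotic index fitted by four-parameter Hill equation.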

In test [2] the target is T1, CDK2/CycE (Homo sapiens, UniProt P24941).
T1 construct: GST; purchased ProQinase GmbH (Freiburg, Germany); host or cells: insect cells (Sf9)
Nature of the test: CDK2/CycE kinase assay (TR-FRET). In kind it is biochemical. The settings on record: avg, read-out: CDK2 avg (IC50 [mol/l]). A digest of the protocol: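 GST-tagged human CDK2 and CycE from Sf9 cells, preincubated 15 min with compound, then 25 min at 22° C. with 10 μM ATP and 0.75 μM biotinylated Rb-derived peptide (final). Phospho-substrate read by TR-FRET (anti-pRB pSer807/pSer811, Eu anti-mouse IgG, streptavidin-XL665), 665/620 nm ratio, normalised to no-inhibitor and no-enzyme controls.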
A general note: In TR-FRET formats the signal depends on donor and acceptor labels being close together.

As for `Cc1nsc(Nc2cnc(C(F)(F)F)cn2)c1C(=O)Nc1ccc(F)c(O[C@@H]2CCN(CC(F)F)C2)c1` [Example 412, N-(3-{[(3R)-1-(2,2-Difluoroethyl)pyrrolidin-3-yl]oxy}-4-fluorophenyl)-3-methyl-5-{[5-(trifluoromethyl)pyrazin-2-yl]amino}-1,2-thiazole-4-carboxamide], the results for the IC50 in test [1] and in test [2] were 11 nM and above 20000 nM, respectively.

As for `Cc1nsc(Nc2cnc(C(F)(F)F)cn2)c1C(=O)Nc1ccc(F)c(O[C@@H]2CCN(CC(F)(F)F)C2)c1` [Example 413, N-(4-Fluoro-3-{[(3R)-1-(2,2,2-trifluoroethyl)pyrrolidin-3-yl]oxy}phenyl)-3-methyl-5-{[5-(trifluoromethyl)pyrazin-2-yl]amino}-1,2-thiazole-4-carboxamide], the results for the IC50 in test [1] and in test [2] were 42 nM and above 20000 nM, respectively.

As for `Cc1nsc(Nc2cnc(C(F)(F)F)cn2)c1C(=O)Nc1ccc(F)c(O[C@@H]2CCN(CCC(F)(F)F)C2)c1` [Example 414, N-(4-Fluoro-3-{[(3R)-1-(3,3,3-trifluoropropyl)pyrrolidin-3-yl]oxy}phenyl)-3-methyl-5-{[5-(trifluoromethyl)pyrazin-2-yl]amino}-1,2-thiazole-4-carboxamide], the IC50 in test [1] is 44 nM; in test [2] it was above 20000 nM.

For `Cc1nsc(Nc2cnc(C(F)(F)F)cn2)c1C(=O)Nc1ccc(F)c(O[C@H]2CCN(CCC(F)(F)F)C2)c1` [Example 415, N-(4-Fluoro-3-{[(3S)-1-(3,3,3-trifluoropropyl)pyrrolidin-3-yl]oxy}phenyl)-3-methyl-5-{[5-(trifluoromethyl)pyrazin-2-yl]amino}-1,2-thiazole-4-carboxamide], the IC50 in test [1] was 53 nM; in test [2] it was above 20000 nM.

As for `Cc1nsc(Nc2cnc(C(F)(F)F)cn2)c1C(=O)Nc1ccc(F)c(O[C@H]2CCN(CC(F)(F)F)C2)c1` [Example 416, N-(4-Fluoro-3-{[(35)-1-(2,2,2-trifluoroethyl)pyrrolidin-3-yl]oxy}phenyl)-3-methyl-5-{[5-(trifluoromethyl)pyrazin-2-yl]amino}-1,2-thiazole-4-carboxamide], the IC50 in test [1] is 27 nM; in test [2], above 20000 nM.

For `Cc1nsc(Nc2cnc(C(F)(F)F)cn2)c1C(=O)Nc1ccc(F)c(O[C@H]2CCN(CC(F)F)C2)c1` [Example 417, N-(3-{[(3S)-1-(2,2-Difluoroethyl)pyrrolidin-3-yl]oxy}-4-fluorophenyl)-3-methyl-5-{[5-(trifluoromethyl)pyrazin-2-yl]amino}-1,2-thiazole-4-carboxamide], the IC50 in test [1] is 32 nM; in test [2] it was above 20000 nM.

With `Cc1nsc(Nc2cnc(C(F)(F)F)cn2)c1C(=O)Nc1ccc(F)c(OC[C@H]2CCCN(CCC(F)(F)F)C2)c1` [Example 418, N-(4-Fluoro-3-{[(3S)-1-(3,3,3-trifluoropropyl)piperidin-3-yl]methoxy}phenyl)-3-methyl-5-{[5-(trifluoromethyl)pyrazin-2-yl]amino}-1,2-thiazole-4-carboxamide], the IC50 in test [1] is 140 nM; in test [2], above 20000 nM.

For `Cc1nsc(Nc2cnc(C(F)(F)F)cn2)c1C(=O)Nc1ccc(F)c(OC[C@H]2CCCN(CC(F)(F)F)C2)c1` [Example 419, N-(4-Fluoro-3-{[(3S)-1-(2,2,2-trifluoroethyl)piperidin-3-yl]methoxy}phenyl)-3-methyl-5-{[5-(trifluoromethyl)pyrazin-2-yl]amino}-1,2-thiazole-4-carboxamide], the IC50 in test [1] is 130 nM; in test [2] it was above 20000 nM.

As to `Cc1nsc(Nc2cnc(C(F)(F)F)cn2)c1C(=O)Nc1ccc(CCC2CCN(CCC(F)(F)F)CC2)nc1` [Example 420, 3-Methyl-5-{[5-(trifluoromethyl)pyrazin-2-yl]amino}-N-(6-{2-[1-(3,3,3-trifluoro-propyl)piperidin-4-yl]ethyl}pyridin-3-yl)-1,2-thiazole-4-carboxamide], the IC50 in test [1] was 240 nM; in test [2] it was above 20000 nM.

Regarding `Cc1nsc(Nc2cnc(C(F)(F)F)cn2)c1C(=O)Nc1ccc(OCCNC(=O)C(F)(F)F)nc1` [Example 425, 3-Methyl-N-(6-{2-[(trifluoroacetyl)amino]ethoxy}pyridin-3-yl)-5-{[5-(trifluoro-methyl)pyrazin-2-yl]amino}-1,2-thiazole-4-carboxamide], the IC50 in test [1] was 350 nM; in test [2], at least 20000 nM.

Consider `Cc1nsc(Nc2cnc(C(F)(F)F)cn2)c1C(=O)Nc1ccc(F)c(OCCCNC(=O)C(F)(F)F)c1` [Example 427, N-(4-Fluoro-3-{3-[(trifluoroacetyl)amino]propoxy}phenyl)-3-methyl-5-{[5-(trifluoro-methyl)pyrazin-2-yl]amino}-1,2-thiazole-4-carboxamide], for which the IC50 in test [1] was 920 nM; in test [2] it was at least 20000 nM.

Take `Cc1nsc(Nc2cnc(C(F)(F)F)cn2)c1C(=O)Nc1ccc(OCCCNC(=O)C(F)(F)F)nc1` [Example 428, 3-Methyl-N-(6-{3-[(trifluoroacetyl)amino]propoxy}pyridin-3-yl)-5-{[5-(trifluoro-methyl)pyrazin-2-yl]amino}-1,2-thiazole-4-carboxamide]: the IC50 is 620 nM in test [1] and above 20000 nM in test [2].

As to `Cc1nsc(Nc2cnc(C(F)(F)F)cn2)c1C(=O)Nc1ccc(OCCN(C)C(=O)OC(C)(C)C)nc1` [Example 429, tert-Butyl methyl{2-[(5-{[(3-methyl-5-{[5-(trifluoromethyl)pyrazin-2-yl]amino}-1,2-thiazol-4-yl)carbonyl]amino}pyridin-2-yl)oxy]ethyl}carbannate], the values for the IC50 in test [1] and in test [2] were 260 nM and above 20000 nM, respectively.

As to `Cc1nsc(Nc2cncc(C(F)(F)F)n2)c1C(=O)Nc1ccc(OCCN(C)C(=O)OC(C)(C)C)nc1` [Example 430, tert-Butyl methyl{2-[(5-{[(3-methyl-5-{[6-(trifluoromethyl)pyrazin-2-yl]amino}-1,2-thiazol-4-yl)carbonyl]amino}pyridin-2-yl)oxy]ethyl}carbannate], the IC50 in test [1] was 45 nM; in test [2], above 20000 nM.

As for `Cc1nsc(Nc2cnc(C(F)(F)F)cn2)c1C(=O)Nc1ccc(OC2CCNCC2)c(F)c1` [Example 431, N-[3-Fluoro-4-(piperidin-4-yloxy)phenyl]-3-methyl-5-{[5-(trifluoromethyl)pyrazin-2-yl]amino}-1,2-thiazole-4-carboxamide], the IC50 in test [1] was 10000 nM; in test [2], above 20000 nM.

With `Cc1nsc(Nc2cnc3ccccc3n2)c1C(=O)Nc1cccc(NC(=O)C(F)(F)F)c1` [Example 432, 3-Methyl-5-(quinoxalin-2-ylamino)-N-{3-[(trifluoroacetyl)amino]phenyl}-1,2-thiazole-4-carboxamide], the IC50 in test [1] was 1200 nM; in test [2] it was above 20000 nM.

Turning to `Cc1nsc(Nc2cnc3ccccc3n2)c1C(=O)Nc1ccc(NCCN(C)C(=O)OC(C)(C)C)nc1` [Example 434, tert-Butyl methyl(2-{[5-({[3-methyl-5-(quinoxalin-2-ylamino)-1,2-thiazol-4-yl]carbonyl}amino)pyridin-2-yl]amino}ethyl)carbamate], the IC50 in test [1] is 3500 nM; in test [2], above 20000 nM.

Turning to `CC(=O)Nc1ccc(NC(=O)c2c(C)nsc2Nc2ccc(C#N)cn2)cn1` [Example 435, N-(6-Acetamidopyridin-3-yl)-5-[(5-cyanopyridin-2-yl)amino]-3-methyl-1,2-thiazole-4-carboxamide], the IC50 is 20000 nM in test [1] and above 20000 nM in test [2].
